From patent publication USRE48711E1, “Apoptosis signal-regulating kinase inhibitors” (Gilead Sciences, Inc., priority 2009, dated 2021) come the findings set out here.

Structures are written as SMILES.

In this test the target is ASK1 (Apoptosis Signal-Regulating Kinase 1) (Homo sapiens (Human), UniProt Q99683). As to the kind of experiment: ASK1 (Apoptosis Signal-Regulating Kinase 1) TR-FRET Kinase Assay (Biochemical IC50). The following applies: TR-FRET, biotin-MBP substrate, 20 min pre-incubation, ATP added as 300 μM solution. (In TR-FRET formats the signal depends on donor and acceptor labels being close together.)
ASK1 (Apoptosis Signal-Regulating Kinase 1), sequence (Q99683 649-946): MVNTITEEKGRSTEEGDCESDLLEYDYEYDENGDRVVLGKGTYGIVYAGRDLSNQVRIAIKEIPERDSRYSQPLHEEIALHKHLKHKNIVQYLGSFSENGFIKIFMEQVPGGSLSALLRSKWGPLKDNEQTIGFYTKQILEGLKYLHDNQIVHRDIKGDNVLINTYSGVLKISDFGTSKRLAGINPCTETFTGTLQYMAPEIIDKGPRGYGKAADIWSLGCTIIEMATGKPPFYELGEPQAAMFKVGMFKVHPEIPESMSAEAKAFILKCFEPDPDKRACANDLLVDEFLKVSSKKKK
Procedure: The ability of compounds to inhibit ASK1 kinase activity was determined using a time resolved fluorescence resonance energy transfer [TR-FRET] assay utilizing biotinylated myelin basic protein [biotin-MBP] as the protein substrate. […] The enzyme was allowed to pre-incubate with compound for 20 minutes prior to initiating the kinase reaction with the addition of 5 μL/well 300 μM ATP in buffer (50 mM MOPS, pH 7.0, 5 mM Mg-acetate, 1 mM DTT, 5% DMSO) using the Decrac Fluidics Equator. The kinase reactions were allowed to proceed for 20 minutes at ambient temperature and were subsequently stopped with the addition of 5 μL/well 25 mM EDTA using the Deerac Fluidics Equator. […] The TR-FRET signal was then read on a Perkin. Elmer Envision plate reader after incubating the plates at ambient temperature for 2 hours.
For the compound `O=C(Nc1cccc(-c2nncn2C2CC2)n1)c1cc(-c2ccc(C3CC3)nc2)ccc1F` [Example 224, N-(6-(4-cyclopropyl-4H-1,2,4-triazol-3-yl)pyridin-2-yl)-5-(6-cyclopropylpyridin-3-yl)-2-fluorobenzamide], the half-maximal inhibitory concentration (IC50) amounted to 13 nM.
`CC(C)N1CCc2ncc(-c3ccnc(C(=O)Nc4cccc(-c5nncn5C5CC5)c4)c3)cc2C1` [Example 172, N-(3-(4-cyclopropyl-4H-1,2,4-triazol-3-yl)phenyl)-4-(6-isopropyl-5,6,7,8-tetrahydro-1,6-naphthyridin-3-yl)picolinamide]: half-maximal inhibition (IC50) was put at 17 nM.
With `C[C@@H](C1CC1)n1cnnc1-c1cccc(NC(=O)c2cc(-c3ccc(C4CC4)nc3)ccn2)c1` [Example 230, (S)-6-cyclopropyl-N-(3-(4-(1-cyclopropylethyl)-4H-1,2,4-triazol-3-yl)phenyl)-3,4′-bipyridine-2′-carboxamide], the midpoint of inhibition, the IC50, lay at 58 nM.
Then `O=C(Nc1cccc(-c2nncn2C2CC2)c1)c1cc(-c2ccc(C3CCCC3)nc2)ccn1` [Example 109, 6-cyclopentyl-N-(3-(4-cyclopropyl-4H-1,2,4-triazol-3-yl)phenyl)-3,4′-bipyridine-2′-carboxamide], with 21 nM; and `CC(C)(C)c1ccc(-c2ccnc(C(=O)Nc3cccc(-c4nncn4C4CC4)c3)c2)cn1` [Example 149, 6-tert-butyl-N-(3-(4-cyclopropyl-4H-1,2,4-triazol-3-yl)phenyl)-3,4′-bipyridine-2′-carboxamide], with 25 nM.
`Cc1c(C(=O)Nc2cccc(-c3nncn3C3CC3)n2)cccc1-n1cnc(C2CC2)c1` [Example 196, 3-(4-cyclopropyl-1H-imidazol-1-yl)-N-(6-(4-cyclopropyl-4H-1,2,4-triazol-3-yl)pyridin-2-yl)-2-methylbenzamide]: half-maximal inhibition (IC50) was put at 1260 nM.
For `CC(O)[C@@H](C)n1cnnc1-c1cccc(NC(=O)c2cc(-c3ccc(C4CC4)nc3)ccn2)n1` (stereo partly drawn) [Example 248, 6-cyclopropyl-N-(6-(4-((2R)-3-hydroxybutan-2-yl)-4H-1,2,4-triazol-3-yl)pyridin-2-yl)-3,4′-bipyridine-2′-carboxamide] the value was 7 nM; for `Cc1ccc(-c2ccnc(C(=O)Nc3cccc(-c4nncn4C4CC4)c3)c2)cn1` [Example 53, N-(3-(4-cyclopropyl-4H-1,2,4-triazol-3-yl)phenyl)-6-methyl-3,4′-bipyridine-2′-carboxamide], 11 nM; for `COc1ncc(-c2ccnc(C(=O)Nc3cccc(-c4nncn4C4CC4)c3)c2)c(OC)n1` [Example 49, N-(3-(4-cyclopropyl-4H-1,2,4-triazol-3-yl)phenyl)-4-(2,4-dimethoxypyrimidin-5-yl)picolinamide], 8 nM.
Then `O=C(Nc1cccc(-c2cncn2C2CC2)c1)c1cc(-c2cccnc2)ccn1` [Example 72, N-(3-(1-cyclopropyl-1H-imidazol-5-yl)phenyl)-3,4′-bipyridine-2′-carboxamide], with 36 nM; and `O=C(Nc1cccc(-c2nncn2C2CC2)n1)c1cc(-c2cccnc2)ccn1` [Example 54, N-(6-(4-cyclopropyl-4H-1,2,4-triazol-3-yl)pyridin-2-yl)-3,4′-bipyridine-2′-carboxamide], with 5 nM.
Then `O=C(Nc1cccc(-c2nncn2CC2CC2)c1)c1cc(-c2cccnc2)ccn1` [Example 181, N-(3-(4-(cyclopropylmethyl)-4H-1,2,4-triazol-3-yl)phenyl)-3,4′-bipyridine-2′-carboxamide], with 131 nM.
In turn, `O=C(Nc1cccc(-c2nncn2C2CC2)c1)c1cc(-c2cnc(C3CC3)c(F)c2)ccn1` [Example 134, 6-cyclopropyl-N-(3-(4-cyclopropyl-4H-1,2,4-triazol-3-yl)phenyl)-5-fluoro-3,4′-bipyridine-2′-carboxamide] came in with a half-inhibitory concentration (IC50) of 34 nM.
Then `O=C(Nc1cc(F)cc(-c2nncn2C2CC2)c1)c1cc(-c2cccnc2)ccn1` [Example 169, N-(3-(4-cyclopropyl-4H-1,2,4-triazol-3-yl)-5-fluorophenyl)-3,4′-bipyridine-2′-carboxamide], with 157 nM; and `Cn1cnnc1-c1cccc(NC(=O)c2cc(N3CCNC(=O)C3)ccn2)c1` [Example 32, N-(3-(4-methyl-4H-1,2,4-triazol-3-yl)phenyl)-4-(3-oxopiperazin-1-yl)picolinamide], with 569 nM.
Consider `O=C(Nc1cccc(-c2nncn2C2CC2)c1)c1cc(-c2cncc(Cl)c2)ccn1` [Example 76, 5-chloro-N-(3-(4-cyclopropyl-4H-1,2,4-triazol-3-yl)phenyl)-3,4′-bipyridine-2′-carboxamide], for which it took 34 nM to reach half-maximal inhibition (IC50).
Then `CS(=O)(=O)N1CCN(c2ccnc(C(=O)Nc3cccc(-c4nncn4C4CC4)c3)c2)CC1` [Example 137, N-(3-(4-cyclopropyl-4H-1,2,4-triazol-3-yl)phenyl)-4-(4-(methylsulfonyl)piperazin-1-yl)picolinamide], with 31 nM; and `O=C(Nc1cccc(-c2nncn2C2CC2)c1)c1cc(-n2cnc(C3CC3)n2)ccn1` [Example 202, 4-(3-cyclopropyl-1H-1,2,4-triazol-1-yl)-N-(3-(4-cyclopropyl-4H-1,2,4-triazol-3-yl)phenyl)picolinamide], with 17 nM.
The compound `Cc1cc(-c2cccnc2)cc(C(=O)Nc2cccc(-c3nncn3C)c2)n1` [Example 46, 6′-methyl-N-(3-(4-methyl-4H-1,2,4-triazol-3-yl)phenyl)-3,4′-bipyridine-2′-carboxamide] displayed an IC50 of 212 nM.
For `N#Cc1cncc(-c2ccnc(C(=O)Nc3cccc(-c4nncn4C4CC4)c3)c2)c1` [Example 65, 5-cyano-N-(3-(4-cyclopropyl-4H-1,2,4-triazol-3-yl)phenyl)-3,4′-bipyridine-2′-carboxamide] the value was 30 nM; for `C[C@@H](c1ccccc1)n1cnnc1-c1cccc(NC(=O)c2cccc(-n3cnc(C4CC4)c3)c2)n1` [Example 214, (S)-3-(4-cyclopropyl-1H-imidazol-1-yl)-N-(6-(4-(1-phenylethyl)-4H-1,2,4-triazol-3-yl)pyridin-2-yl)benzamide], 159 nM.
Then `CN1CCc2c(ncn2-c2ccnc(C(=O)Nc3cccc(-c4nncn4C4CC4)n3)c2)C1C(F)(F)F` (stereo not shown) [Example 256, N-(6-(4-cyclopropyl-4H-1,2,4-triazol-3-yl)pyridin-2-yl)-4-(5-methyl-4-(trifluoromethyl)-4,5,6,7-tetrahydro-1H-imidazo[4,5-c]pyridin-1-yl)picolinamide], with 4 nM.
Then `CCS(=O)(=O)c1ccc(-c2ccnc(C(=O)Nc3cccc(-c4nncn4C4CC4)c3)c2)cc1` [Example 117, N-(3-(4-cyclopropyl-4H-1,2,4-triazol-3-yl)phenyl)-4-(4-(ethylsulfonyl)phenyl)picolinamide], with 12 nM; and `O=C(Nc1cccc(-c2nncn2C2CC2)c1)c1cc(-c2ccc(CC3CC3)nc2)ccn1` [Example 268, N-(3-(4-cyclopropyl-4H-1,2,4-triazol-3-yl)phenyl)-6-(cyclopropylmethyl)-3,4′-bipyridine-2′-carboxamide], with 13 nM.
`O=C(Nc1cccc(-c2nncn2C2CC2)c1)c1cc(-c2cnc3ccccc3c2)ccn1` [Example 84, N-(3-(4-cyclopropyl-4H-1,2,4-triazol-3-yl)phenyl)-4-(quinolin-3-yl)picolinamide] had a half-inhibitory concentration (IC50) of 13 nM.
For `CC(C)n1ccc2ncc(-c3ccnc(C(=O)Nc4cccc(-c5nncn5C5CC5)c4)c3)cc21` [Example 243, N-(3-(4-cyclopropyl-4H-1,2,4-triazol-3-yl)phenyl)-4-(1-isopropyl-1H-pyrrolo[3,2-b]pyridin-6-yl)picolinamide] the value was 15 nM.
For `C[C@H](O)[C@H](C)n1cnnc1-c1cccc(NC(=O)c2cc(-c3ccc(C4CC4)nc3)ccn2)n1` [Example 246, 6-cyclopropyl-N-(6-(4-((2S,3S)-3-hydroxybutan-2-yl)-4H-1,2,4-triazol-3-yl)pyridin-2-yl)-3,4′-bipyridine-2′-carboxamide] the value was 6 nM.
Then `O=C(Nc1cccc(-c2nncn2C2CC2)c1)c1cc(-c2cnc3[nH]ccc3c2)ccn1` [Example 92, N-(3-(4-cyclopropyl-4H-1,2,4-triazol-3-yl)phenyl)-4-(1H-pyrrolo[2,3-b]pyridin-5-yl)picolinamide], with 13 nM.
For the compound `CCC(C)n1cnnc1-c1cccc(NC(=O)c2cc(-c3ccc(C4CC4)nc3)ccn2)c1` (stereo not shown) [Example 229, N-(3-(4-sec-butyl-4H-1,2,4-triazol-3-yl)phenyl)-6-cyclopropyl-3,4′-bipyridine-2′-carboxamide], it took 101 nM to reach half-maximal inhibition (IC50). This IC50 lies about 7.8-fold higher than the previous one.
For `COc1cncc(-c2ccnc(C(=O)Nc3cccc(-c4nncn4C4CC4)c3)c2)c1` [Example 71, N-(3-(4-cyclopropyl-4H-1,2,4-triazol-3-yl)phenyl)-5-methoxy-3,4′-bipyridine-2′-carboxamide] the value was 17 nM.
In turn, `Cc1ncn(-c2ccnc(C(=O)Nc3cccc(-c4nncn4C4CC4)c3)c2)c1C` [Example 43, N-(3-(4-cyclopropyl-4H-1,2,4-triazol-3-yl)phenyl)-4-(4,5-dimethyl-1H-imidazol-1-yl)picolinamide] returned an IC50 of 8 nM.
In the case of `O=C(Nc1cccc(-c2nncn2C2CC2)c1)c1cc(-c2cnc3ccn(CC(F)(F)F)c3c2)ccn1` [Example 244, N-(3-(4-cyclopropyl-4H-1,2,4-triazol-3-yl)phenyl)-4-(1-(2,2,2-trifluoroethyl)-1H-pyrrolo[3,2-b]pyridin-6-yl)picolinamide], inhibition was half-maximal at 25 nM (IC50).
Regarding `CCc1ncc(-c2ccnc(C(=O)Nc3cccc(-c4nncn4C4CC4)c3)c2)cc1F` [Example 138, N-(3-(4-cyclopropyl-4H-1,2,4-triazol-3-yl)phenyl)-6-ethyl-5-fluoro-3,4′-bipyridine-2′-carboxamide], the IC50 is 8 nM.
The compound `Cc1cc(-c2ccc(C3CC3)nc2)cc(C(=O)Nc2cccc(-c3nncn3C3CC3)n2)n1` [Example 233, 6-cyclopropyl-N-(6-(4-cyclopropyl-4H-1,2,4-triazol-3-yl)pyridin-2-yl)-6′-methyl-3,4′-bipyridine-2′-carboxamide] showed a 50% inhibitory concentration (IC50) of 14 nM.

The term IC50 denotes the concentration needed to halve the response being measured.
